Laboratory results reported in patent publication US20140072657A1, “NOVEL PHARMACEUTICAL FORMULATION” (priority 2011, published 2014).

How the values were obtained:
Periodontitis = Periodontitis cases: sites with CPITN code 3+4 / code 4 pockets before and after the composition; type: in vivo, human
Excerpt: As indicator of periodontal status pocket depth is used according to Treatment Need codes 3 and 4 in Community Periodontal Index—Treatment Needs (CPITN). This code is applied to every treated tooth or implant.
Periodontal pockets: shallow (Code 3: 4-5 mrn) and deep (Code 4: 6 mm or more).
(§1) Initial motivation and cleaning instruction, supragingival biofilm reduction by trimestrially repeated brushing in CHX solution 0.07 wt % for two weeks by the patient and tooth and pocket cleaning by ultrasonic scaling as well as covering exposed root dentine by adhesive fillings to hide protein coaggregational binding sites for anaerobic microbial species (A.a., P.g., T.d.) was administered. […]

[1] = test system: Gingivitis, edema, mucosal inflammation; test: Clinical observation of oral inflammation, edema and regeneration (gingivitis, dentition difficilis, healing cap, inflamed extraction socket); type: in vivo, human
Protocol: as §1

[2] = Case 11, 4000 I.E. systemically 2 months
[3] = cases 10, 11, systemic application over 2 months

SMILES: C=C1CC[C@H](O)C/C1=C/C=C1\CCC[C@]2(C)[C@@H]([C@H](C)CCCC(C)C)CC[C@@H]12 [vit D3, vitamin D3]
- Code 4: severe (Periodontitis; Case 11, 18 sites/3, 4000 I.E. systemically 2 months, before 22): 22
- edema (Periodontitis; [2]): no edema
- pocket regeneration code 3 (Periodontitis; [2]): +33%
- sensitivity (Periodontitis; [2]): no sensitivity,
- CPITN Code 3 + 4 Nr. (Periodontitis; Case 11, Periodontitis, Periimplantitis, 18 sites/3, 4000 I.E. systemically 2 months, before 61): 38
- edema, inflammation and attachment loss (Periodontitis; [3]): stop of edema, inflammation and attachment loss
- regeneration in code 3 CPITN pockets (Periodontitis; [3]): some regeneration
- edema ([1]; Case 10, 4000 I.E. systemically 2 months): no edema
- pockets ([1]; Case 10, Gingivitis, Mc Calls edema, 4000 I.E. systemically 2 months): Shallow pockets,
